Values of other authors as cited in PMC11054727 (Viruses, 2024).
Where two headings read alike, the source gives them in different places.

Assays:
[1] = test system: SARS-CoV-2; set-up: method as in ref 23; conditions: Table S1, experimental antiviral activity; read-out: Observed EC50; cited from earlier work
[2] = test system: SARS-CoV-2; conditions: cited from earlier work
[3] = test system: SARS-CoV-2 pseudovirus; set-up: method as in ref 48 = [48]; conditions: read-out: EC50 pseudovirus entry; cited from earlier work
[4] = test system: SARS-CoV-2; conditions: cited from earlier work; remark: listed apart in the source
[5] = test system: SARS-CoV-2 Spike; conditions: read-out: Spike-mediated fusion activity EC50; cited from earlier work
[6] = test system: hCoV-OC43; set-up: method as in ref 2 = [2]; conditions: read-out: EC50 hCoV-OC43 infections; cited from earlier work
[7] = test system: Nsp5 Main protease (Mpro); conditions: cited from earlier work
[8] = experimental CPE data, read-out: EC50 CPE

For `COc1ccc(Nc2cc3nc4ccccc4n(-c4ccc(Cl)cc4)c-3cc2=N)c(OC)c1` [6e], the EC50 [1] is listed as 16.1 µM.

In the case of `COc1ccc(-n2c3cc(=NC4CC4)c(Nc4ccc(F)cc4)cc-3nc3ccccc32)cc1` [15h], the EC50 [1] is given as 33.1 µM.

For `CC(C)N=c1cc2n(-c3ccc(F)cc3)c3ccccc3nc-2cc1Nc1ccc(F)cc1` [15b], the EC50 [1] is given as 81.1 µM.

In the case of `CN(C)CCOc1ccc(/C(=C(/CCCl)c2ccccc2)c2ccccc2)cc1` [compound 3, Toremifene], the EC50 ([2]; read-out: EC50 live SARS-CoV-2 infections) is listed as 3.58 µM and the EC50 [3] is listed as 1.92 µM.

For `Clc1ccc(Nc2cc3nc4ccccc4n(-c4ccc(Cl)cc4)c-3cc2=NC2CC2)cc1` [7a], the EC50 [1] is given as 141 µM.

In the case of `C=C[C@@]1(C)CC(=O)[C@]2(O)[C@@]3(C)[C@@H](O)CCC(C)(C)[C@@H]3[C@H](OC(=O)CCN(C)C)[C@H](OC(C)=O)[C@@]2(C)O1.Cl` [NKH477], the “extent of inhibition in CPE assays” value ([4]; Vero E6 cells) is listed as “partial inhibitors”.

In the case of `CC(CN(C)C)CN1c2ccccc2CCc2ccccc21` (stereo not drawn) [trimipramine], the “extent of inhibition in CPE assays” value ([4]; Vero E6 cells) is given as “partial inhibitors”.

In the case of `CC(C)N=c1cc2n(-c3ccc(Cl)cc3)c3ccccc3nc-2cc1Nc1ccccc1` [7c], the EC50 [1] is listed as 40.9 µM.

In the case of `COc1ccc(Nc2cc3nc4ccccc4n(-c4ccc(Cl)cc4)c-3cc2=N)cc1` [6d], the EC50 [1] is given as 154 µM.

For `CCOC(=O)c1c(CSc2ccccc2)n(C)c2cc(Br)c(O)c(CN(C)C)c12` [compound 1, Arbidol], the EC50 [1] is listed as 10 µM, the “extent of inhibition in CPE assays” value [4] is listed as “partial inhibitor” and the EC50 [4, 8] is listed as 5.6 µM.

For `CC(C)N=c1cc2n(-c3ccc(F)cc3)c3ccccc3nc-2cc1Nc1ccc(Cl)cc1` [15a], the EC50 [1] is given as 29.6 µM.

In the case of `COc1ccc(Nc2cc3nc4ccccc4n(-c4ccc(Cl)cc4)c-3cc2=NC(C)C)cc1` [7g], the EC50 [1] is given as 16.6 µM.

In the case of `CC(C)/N=c1\cc2n(-c3ccc(Cl)cc3)c3ccccc3nc-2cc1Nc1ccc(Cl)cc1` [compound 2, Clofazimine], the EC50 ([4]; read-out: consensus EC50 antiviral activity) is listed as 0.31 µM, the “extent of inhibition in infection assays” value ([2]; Vero E6, Huh7, and Caco-2 cells) is listed as “full inhibitor” and the EC50 ([2]; same study as hCoV-OC43, read-out: EC50 SARS-CoV-2 infections) is listed as 0.01 µM. For the same compound, the EC50 [5] was 2.56 µM, the EC50 [6] was 0.35 µM and the “Nsp5 Main protease (Mpro) activity” value [7] was “zero activity”.

For `CCOC(=O)c1c(CS(=O)(=O)c2ccc(Cl)cc2)n(C)c2cc(Br)c(O)c(CN(C)C)c12` [1b], the EC50 [4, 8] is given as 29.5 µM.

In the case of `CC(C)N=c1cc2n(-c3ccc(Cl)cc3)c3ccccc3nc-2cc1NCc1ccc(Cl)cc1` [7k], the EC50 [1] is listed as 12.4 µM.

For `COc1ccc(-n2c3cc(=NC(C)C)c(Nc4ccc(F)cc4)cc-3nc3ccccc32)cc1` [15g], the EC50 [1] is given as 10 µM.

For `CC(C)N=c1cc2n(-c3ccc(Cl)cc3)c3ccccc3nc-2cc1Nc1ccc(OC(F)(F)F)cc1` [7i], the EC50 [1] is given as 10 µM.

For `COc1ccc(-n2c3cc(=NC(C)C)c(Nc4cccc(F)c4)cc-3nc3ccccc32)cc1` [15f], the EC50 [1] is given as 14.6 µM.

In the case of `CCC(CC)COC(=O)[C@H](C)N[P@](=O)(OC[C@H]1O[C@@](C#N)(c2ccc3c(N)ncnn23)[C@H](O)[C@@H]1O)Oc1ccccc1` [Remdesivir], the “extent of inhibition in CPE assays” value [4] is given as “full inhibitors”.
